# From ChEMBL document CHEMBL1201862, “PubChem BioAssay data set” (2004)
# The source made the active and inactive calls.
# Columns and labels:
# [1] = target: T1, Fatty acid synthase (Homo sapiens, UniProt P49327); experiment: inhibition of human FAS-TE enzyme activity – biochemical, endpoint fluorescence intensity, uHTS hits, dose response (AID 624327); assay type: functional;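 note: fluorescence from hydrolysis of an O-methyl fluorescein acyl ester substrate by the enzyme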
# [2] = target: T1, Fatty acid synthase; experiment: inhibition of human FAS-TE enzyme activity – biochemical, kinetic fluorescence intensity, dose response (AID 624326); assay type: functional;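 note: rate of fluorescence rise from hydrolysis of a fluorogenic O-methyl fluorescein ester substrate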
# [3] = target: T2, Protein RecA (Mycobacterium tuberculosis, UniProt P9WHJ3); experiment: Fluorescence Cell-Free Homogeneous Dose Retest to Identify Inhibitors of RecA-Intein Splicing Activity. [Related pubchem assays (depositor defined):AID2097, AID2223, AID489010, AID492950]; assay type: functional
# T2 sequence (P9WHJ3 whole entry): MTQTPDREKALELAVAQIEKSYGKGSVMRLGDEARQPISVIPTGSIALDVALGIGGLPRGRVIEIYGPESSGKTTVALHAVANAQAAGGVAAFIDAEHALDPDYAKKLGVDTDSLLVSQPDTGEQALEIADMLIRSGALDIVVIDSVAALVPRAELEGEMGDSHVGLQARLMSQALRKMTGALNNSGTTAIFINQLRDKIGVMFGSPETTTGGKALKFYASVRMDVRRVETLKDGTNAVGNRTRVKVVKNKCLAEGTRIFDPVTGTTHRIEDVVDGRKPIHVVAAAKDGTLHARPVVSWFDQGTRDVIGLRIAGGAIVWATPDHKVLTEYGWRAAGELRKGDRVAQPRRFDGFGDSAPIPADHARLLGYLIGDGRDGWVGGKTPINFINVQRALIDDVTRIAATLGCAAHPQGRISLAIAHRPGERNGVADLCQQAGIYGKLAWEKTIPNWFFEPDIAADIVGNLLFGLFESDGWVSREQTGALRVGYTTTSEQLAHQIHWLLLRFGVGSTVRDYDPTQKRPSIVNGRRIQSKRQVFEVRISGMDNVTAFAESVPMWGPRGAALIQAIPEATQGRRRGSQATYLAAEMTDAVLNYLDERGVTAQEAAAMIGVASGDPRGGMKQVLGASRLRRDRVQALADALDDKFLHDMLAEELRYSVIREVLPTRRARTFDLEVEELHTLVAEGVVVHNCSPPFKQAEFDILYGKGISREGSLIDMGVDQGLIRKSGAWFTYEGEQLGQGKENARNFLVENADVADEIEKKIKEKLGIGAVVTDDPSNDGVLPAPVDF
# [4] = target: T3, Replicative DNA helicase DnaB (Mycobacterium tuberculosis, UniProt P9WMR3); experiment: DnaB intein splicing inhibitors, dose response, biochemical, cell-free fluorescence (AID 449749); assay type: functional
# T3 sequence (P9WMR3 whole entry): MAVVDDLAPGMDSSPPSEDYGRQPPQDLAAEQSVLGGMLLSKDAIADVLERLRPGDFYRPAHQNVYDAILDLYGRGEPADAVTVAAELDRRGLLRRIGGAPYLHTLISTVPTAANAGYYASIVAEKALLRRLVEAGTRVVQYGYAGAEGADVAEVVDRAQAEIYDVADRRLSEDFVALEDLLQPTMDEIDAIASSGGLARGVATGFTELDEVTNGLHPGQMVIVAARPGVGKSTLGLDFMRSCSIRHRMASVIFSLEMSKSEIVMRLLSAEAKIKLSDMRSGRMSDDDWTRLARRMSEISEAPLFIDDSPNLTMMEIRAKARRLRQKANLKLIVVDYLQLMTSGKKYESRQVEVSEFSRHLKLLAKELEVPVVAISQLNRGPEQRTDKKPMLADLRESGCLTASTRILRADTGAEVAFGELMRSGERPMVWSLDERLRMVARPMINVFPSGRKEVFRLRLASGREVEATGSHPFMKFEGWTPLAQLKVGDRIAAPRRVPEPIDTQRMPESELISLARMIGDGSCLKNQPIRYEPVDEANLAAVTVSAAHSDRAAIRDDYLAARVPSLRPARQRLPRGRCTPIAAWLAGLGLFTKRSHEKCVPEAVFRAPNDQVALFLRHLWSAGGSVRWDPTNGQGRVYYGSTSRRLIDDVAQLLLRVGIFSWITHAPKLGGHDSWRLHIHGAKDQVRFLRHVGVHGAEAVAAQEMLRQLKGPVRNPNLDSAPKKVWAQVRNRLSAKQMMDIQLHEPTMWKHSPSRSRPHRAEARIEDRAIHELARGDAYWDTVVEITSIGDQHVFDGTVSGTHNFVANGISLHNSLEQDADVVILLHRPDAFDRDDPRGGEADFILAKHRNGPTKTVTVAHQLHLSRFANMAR
# [5] = target: Nonstructural protein 1 (Influenza A virus, UniProt Q194T2); assay type: functional, Influenza A virus (A/California/07/2009(H1N1))
# Nonstructural protein 1, sequence (Q194T2 whole entry): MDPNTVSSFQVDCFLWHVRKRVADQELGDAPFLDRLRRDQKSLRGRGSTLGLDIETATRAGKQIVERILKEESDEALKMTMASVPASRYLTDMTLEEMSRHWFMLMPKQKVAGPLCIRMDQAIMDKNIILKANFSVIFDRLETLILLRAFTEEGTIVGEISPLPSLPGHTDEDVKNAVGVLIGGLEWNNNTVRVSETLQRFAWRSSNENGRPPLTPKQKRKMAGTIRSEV
# [6] = target: T4, Polyadenylate-binding protein 1 (Homo sapiens, UniProt P11940); experiment: MLLE binding blockers, Cy5 peptide tracer – biochemical, fluorescence polarization, Cy5-PAM2 peptide, secondary, miRNA deadenylation inhibitor project, dose response (AID 602260); assay type: functional; details: read-out: IC50_Mean
# T4 sequence (P11940 whole entry, the tested form may be a part): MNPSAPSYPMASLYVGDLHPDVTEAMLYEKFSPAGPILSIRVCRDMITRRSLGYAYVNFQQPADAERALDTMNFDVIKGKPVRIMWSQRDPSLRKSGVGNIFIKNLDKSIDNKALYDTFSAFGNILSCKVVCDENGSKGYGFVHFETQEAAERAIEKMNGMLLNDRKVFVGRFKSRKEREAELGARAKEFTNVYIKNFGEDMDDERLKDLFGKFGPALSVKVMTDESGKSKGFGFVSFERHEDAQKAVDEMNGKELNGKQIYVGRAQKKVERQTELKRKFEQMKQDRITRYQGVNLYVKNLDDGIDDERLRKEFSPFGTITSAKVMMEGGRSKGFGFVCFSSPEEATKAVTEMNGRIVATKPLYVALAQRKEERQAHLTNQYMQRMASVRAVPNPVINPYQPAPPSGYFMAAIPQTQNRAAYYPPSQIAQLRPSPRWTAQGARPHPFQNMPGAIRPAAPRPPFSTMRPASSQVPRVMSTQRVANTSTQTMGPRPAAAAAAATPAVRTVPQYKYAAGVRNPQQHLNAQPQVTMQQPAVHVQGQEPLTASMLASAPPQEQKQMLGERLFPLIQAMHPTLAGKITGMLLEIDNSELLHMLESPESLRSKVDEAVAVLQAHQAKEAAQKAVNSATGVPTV
# [7] = target: T4, Polyadenylate-binding protein 1; experiment: MLLE domain peptide-binding blockers, IC50 – biochemical, fluorescence polarization, FITC-PAM2 peptide, dose response (AID 602259); assay type: functional; details: read-out: IC50_Mean
# [8] = target: T5, RNA-binding protein pos-1 (Caenorhabditis elegans, UniProt G5EF15); experiment: disruptors of C. elegans POS-1 RNA interaction – biochemical, fluorescence polarization, dose response (AID 1964);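 note: purified POS-1 fused to maltose binding protein made in E. coli; potency of compounds blocking POS-1 binding to fluorescent RNA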
# T5 sequence (G5EF15 whole entry): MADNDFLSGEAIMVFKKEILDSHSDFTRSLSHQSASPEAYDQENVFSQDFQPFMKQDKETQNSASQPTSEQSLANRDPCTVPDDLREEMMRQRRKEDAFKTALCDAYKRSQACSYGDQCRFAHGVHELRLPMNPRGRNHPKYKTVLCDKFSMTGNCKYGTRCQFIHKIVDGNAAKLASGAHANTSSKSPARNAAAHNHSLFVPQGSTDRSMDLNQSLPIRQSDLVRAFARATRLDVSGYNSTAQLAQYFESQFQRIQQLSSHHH
# [9] = target: T6, Zinc finger protein mex-5 (Caenorhabditis elegans, UniProt Q9XUB2); experiment: potency of MEX-5 RNA-binding blockers – biochemical, C. elegans, fluorescence polarization, dose response (AID 1960)
# T6 sequence (Q9XUB2 whole entry): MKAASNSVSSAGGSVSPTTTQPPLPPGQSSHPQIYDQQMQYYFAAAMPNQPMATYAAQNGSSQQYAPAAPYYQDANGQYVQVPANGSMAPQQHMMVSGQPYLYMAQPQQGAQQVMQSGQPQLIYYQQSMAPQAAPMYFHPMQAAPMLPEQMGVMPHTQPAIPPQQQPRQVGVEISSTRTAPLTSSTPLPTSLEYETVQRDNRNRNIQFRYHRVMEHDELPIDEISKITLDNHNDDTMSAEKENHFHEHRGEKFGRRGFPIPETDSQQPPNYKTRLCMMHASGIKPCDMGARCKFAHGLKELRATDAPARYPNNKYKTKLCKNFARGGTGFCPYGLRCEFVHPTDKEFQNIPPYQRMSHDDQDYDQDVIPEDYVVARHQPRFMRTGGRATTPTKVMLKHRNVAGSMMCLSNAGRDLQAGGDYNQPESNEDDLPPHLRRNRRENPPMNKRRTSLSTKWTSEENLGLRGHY
# [10] = NIH-3T3 fibroblast cytotoxicity, dose response, cytotoxicity control, cell-based, fluorescence, Alamar Blue, secondary assay (AID 2327); assay type: functional;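 note: NIH-3T3 mouse fibroblasts cultured with fluconazole at 8 µg/mL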
# [11] = fluconazole-exposed Candida albicans growth modulators – fluorescence, retest, confirmation (AID 2467); assay type: functional, cell-based
# [12] = target: T7, Calpain-2 catalytic subunit (Sus scrofa, UniProt P43367); experiment: m-calpain protease blockers, concentration series – biochemical, fluorogenic peptide substrate, dose response (AID 1420); assay type: functional
# T7 sequence (P43367 whole entry): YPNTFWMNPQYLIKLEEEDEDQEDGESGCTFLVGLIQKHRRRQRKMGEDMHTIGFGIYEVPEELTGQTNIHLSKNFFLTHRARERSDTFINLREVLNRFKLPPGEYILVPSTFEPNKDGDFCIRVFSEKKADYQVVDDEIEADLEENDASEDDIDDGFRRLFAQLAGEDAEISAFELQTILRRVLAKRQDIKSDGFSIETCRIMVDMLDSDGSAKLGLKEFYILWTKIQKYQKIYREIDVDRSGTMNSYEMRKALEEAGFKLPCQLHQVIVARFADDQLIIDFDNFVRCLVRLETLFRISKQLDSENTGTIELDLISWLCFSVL
# [13] = P. falciparum Dd2 growth inhibitors, dose response, SYBR Green, cherry-picked samples (AID 1159567); assay type: functional, cell-based
# [14] = target: T8, High affinity choline transporter 1 (Homo sapiens, UniProt Q9GZV3); experiment: human choline transporter blockers, potency – cell-based, 5-point CRC, membrane potential dye, dose response (AID 504840); assay type: functional
# T8 sequence (Q9GZV3 whole entry): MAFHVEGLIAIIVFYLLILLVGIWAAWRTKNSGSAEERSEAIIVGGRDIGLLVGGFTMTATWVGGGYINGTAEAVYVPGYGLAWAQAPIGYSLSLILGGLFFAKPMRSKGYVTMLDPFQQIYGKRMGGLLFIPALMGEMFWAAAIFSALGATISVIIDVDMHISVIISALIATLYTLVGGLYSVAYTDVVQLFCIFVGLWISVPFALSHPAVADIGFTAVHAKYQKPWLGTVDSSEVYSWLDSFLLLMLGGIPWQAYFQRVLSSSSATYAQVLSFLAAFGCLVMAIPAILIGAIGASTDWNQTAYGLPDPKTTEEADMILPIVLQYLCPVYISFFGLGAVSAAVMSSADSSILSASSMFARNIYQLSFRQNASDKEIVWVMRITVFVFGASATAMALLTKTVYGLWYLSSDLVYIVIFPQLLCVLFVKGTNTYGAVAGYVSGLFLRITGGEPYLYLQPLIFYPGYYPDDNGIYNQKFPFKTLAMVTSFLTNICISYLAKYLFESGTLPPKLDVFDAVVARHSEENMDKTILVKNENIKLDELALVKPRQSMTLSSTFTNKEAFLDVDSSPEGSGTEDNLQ
# T1 sequence (P49327 whole entry): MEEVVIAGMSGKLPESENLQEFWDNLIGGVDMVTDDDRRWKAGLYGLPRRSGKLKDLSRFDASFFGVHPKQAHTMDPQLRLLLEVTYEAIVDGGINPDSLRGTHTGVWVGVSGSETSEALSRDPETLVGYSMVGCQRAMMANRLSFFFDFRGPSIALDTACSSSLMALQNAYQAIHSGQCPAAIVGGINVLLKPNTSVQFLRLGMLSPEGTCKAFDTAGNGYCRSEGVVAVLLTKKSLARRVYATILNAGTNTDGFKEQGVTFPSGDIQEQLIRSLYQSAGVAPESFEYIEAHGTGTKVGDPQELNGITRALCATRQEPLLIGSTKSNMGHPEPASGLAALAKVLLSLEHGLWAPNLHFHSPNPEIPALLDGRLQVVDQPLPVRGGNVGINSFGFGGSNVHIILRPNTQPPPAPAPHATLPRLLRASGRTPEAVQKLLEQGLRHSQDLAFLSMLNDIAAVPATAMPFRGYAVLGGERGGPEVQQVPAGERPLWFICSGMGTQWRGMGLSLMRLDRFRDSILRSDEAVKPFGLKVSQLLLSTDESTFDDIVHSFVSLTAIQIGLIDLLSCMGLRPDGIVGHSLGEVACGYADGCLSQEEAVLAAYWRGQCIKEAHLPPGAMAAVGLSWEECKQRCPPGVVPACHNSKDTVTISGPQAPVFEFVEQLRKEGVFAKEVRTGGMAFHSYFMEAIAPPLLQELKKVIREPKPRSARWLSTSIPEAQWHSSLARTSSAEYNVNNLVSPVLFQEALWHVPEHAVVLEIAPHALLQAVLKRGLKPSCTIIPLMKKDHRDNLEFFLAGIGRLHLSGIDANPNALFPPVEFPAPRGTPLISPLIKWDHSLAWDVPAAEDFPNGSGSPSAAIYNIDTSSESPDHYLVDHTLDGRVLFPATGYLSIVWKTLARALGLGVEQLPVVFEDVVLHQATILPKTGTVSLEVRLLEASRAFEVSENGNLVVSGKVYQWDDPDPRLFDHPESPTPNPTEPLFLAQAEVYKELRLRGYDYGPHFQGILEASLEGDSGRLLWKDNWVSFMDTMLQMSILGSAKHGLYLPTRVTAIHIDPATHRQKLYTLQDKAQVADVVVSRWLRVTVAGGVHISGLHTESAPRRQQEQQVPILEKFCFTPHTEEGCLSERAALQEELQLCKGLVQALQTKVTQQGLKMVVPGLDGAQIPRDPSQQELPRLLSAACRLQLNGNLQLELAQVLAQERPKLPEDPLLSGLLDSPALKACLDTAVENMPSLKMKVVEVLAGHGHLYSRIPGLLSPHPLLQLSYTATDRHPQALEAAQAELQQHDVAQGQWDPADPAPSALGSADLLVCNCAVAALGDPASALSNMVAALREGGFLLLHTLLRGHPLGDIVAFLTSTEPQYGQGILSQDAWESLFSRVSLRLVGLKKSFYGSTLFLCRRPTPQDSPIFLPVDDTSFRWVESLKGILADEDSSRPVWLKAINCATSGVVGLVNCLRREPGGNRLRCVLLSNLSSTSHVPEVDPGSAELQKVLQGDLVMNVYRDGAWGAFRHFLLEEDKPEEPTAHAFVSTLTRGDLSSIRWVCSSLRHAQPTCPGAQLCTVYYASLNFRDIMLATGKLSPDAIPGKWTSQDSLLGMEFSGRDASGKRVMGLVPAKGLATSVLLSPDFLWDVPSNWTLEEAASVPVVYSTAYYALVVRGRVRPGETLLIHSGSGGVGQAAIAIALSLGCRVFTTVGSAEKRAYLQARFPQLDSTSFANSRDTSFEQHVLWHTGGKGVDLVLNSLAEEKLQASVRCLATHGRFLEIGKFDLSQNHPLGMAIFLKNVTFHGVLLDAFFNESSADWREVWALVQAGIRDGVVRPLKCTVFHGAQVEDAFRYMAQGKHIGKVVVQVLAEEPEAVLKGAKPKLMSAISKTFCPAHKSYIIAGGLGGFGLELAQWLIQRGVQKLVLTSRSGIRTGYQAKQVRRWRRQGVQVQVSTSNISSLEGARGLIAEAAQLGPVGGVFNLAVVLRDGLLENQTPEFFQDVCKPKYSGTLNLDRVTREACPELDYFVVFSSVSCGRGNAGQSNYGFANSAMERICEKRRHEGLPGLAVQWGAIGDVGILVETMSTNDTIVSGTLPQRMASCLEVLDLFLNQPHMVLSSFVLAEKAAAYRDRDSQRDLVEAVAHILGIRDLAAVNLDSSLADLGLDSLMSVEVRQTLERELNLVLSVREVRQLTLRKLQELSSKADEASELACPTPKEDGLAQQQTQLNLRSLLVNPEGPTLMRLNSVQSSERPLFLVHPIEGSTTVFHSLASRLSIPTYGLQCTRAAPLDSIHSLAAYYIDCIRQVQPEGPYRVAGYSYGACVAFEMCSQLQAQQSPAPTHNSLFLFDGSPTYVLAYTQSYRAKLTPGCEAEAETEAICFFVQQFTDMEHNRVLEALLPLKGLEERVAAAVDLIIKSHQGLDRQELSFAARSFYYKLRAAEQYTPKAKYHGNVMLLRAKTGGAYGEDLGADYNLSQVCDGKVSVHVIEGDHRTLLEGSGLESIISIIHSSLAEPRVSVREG
structure (smiles),measurement,setting,value
CCN(C(=O)COC(=O)c1cc([N+](=O)[O-])ccc1N1CCOCC1)c1ccccc1,IC50,[1],1.94 µM (active)
same,IC50,[2],1.86 µM (active)
CC(C)N1C(=O)S/C(=C\c2ccc(-c3ccc(Cl)c(C(=O)O)c3)o2)C1=O,IC50,[1],5.26 µM (active)
same,IC50,[2],5.51 µM (active)
CCOC(=O)c1cnc(-n2[nH]c(C)c(Cc3ccccc3)c2=O)[nH]c1=O,EC50,[3],5.99 µM (active)
same,AC50,[4],9.77 µM (active)
same,IC50,[5],3.4 µM (active)
O=C1NC(=O)N2CCSC2(Cc2ccccc2)N1 (stereo not given),IC50,[6],> 66 µM (inactive)
same,IC50,[7],> 66 µM (inactive)
CCC(CC)COC(=O)C1=C(C)NC(=O)NC1c1ccc([N+](=O)[O-])cc1 (stereo not given),IC50,[1],4.35 µM (active)
same,IC50,[2],5.94 µM (active)
O=C(N/N=C\C1C(=O)NC(=S)N(c2ccccc2)C1=O)c1ccc(O)cc1 (stereo not given),EC50,[8],> 300 µM (not active)
same,IC50,[5],9.86 µM (active)
same,EC50,[9],63.7 µM (active)
O=C1c2ccccc2C(=O)c2c1cccc2N1CCCC1,EC50,[10],55.6 µM (active)
same,EC50,[11],> 38 µM (not active)
same,IC50,[5],7.3 µM (active)
same,IC50,[12],14.6 µM (not active)
Cc1nc(CCNC(=O)CC2C(=O)NCCN2Cc2ccccc2)sc1C (stereo not given),IC50,[6],> 66 µM (inactive)
same,IC50,[7],> 66 µM (inactive)
CCCN(C)C[C@@H]1Oc2cc(C#Cc3ccccc3)ccc2S(=O)(=O)N([C@@H](C)CO)C[C@@H]1C,AC50,[13],4.59 µM (active)
O=C(C1CCCC1)N1CC(=O)N2[C@H](CO)[C@@H](c3ccc(C#CCc4ccccc4)cc3)[C@@H]2C1,AC50,[13],6.57 µM (active)
Cn1c(=O)c([N+](=O)[O-])c(N2CCN(Cc3ccc4c(c3)OCO4)CC2)c2ccccc21,IC50,[1],2.71 µM (active)
same,IC50,[2],4.73 µM (active)
CC(C)(C)NC(=O)NC(=O)COC(=O)Cc1ccc(Cl)cc1Cl,IC50,[1],9.97 µM (active)
same,IC50,[2],9.75 µM (active)
O=[N+]([O-])c1ccc(S(=O)(=O)Nc2nnc(C3CCCCC3)s2)cc1,IC50,[1],7.87 µM (active)
same,IC50,[2],7.54 µM (active)
CCC(=O)N1CCC2(CC1)CN(C(=O)Nc1ccc(F)cc1)[C@@H](CO)c1c2c2ccc(OC)cc2n1C,AC50,[13],4.37 µM (active)
COc1ccc2c3c(n(C)c2c1)[C@@H](CO)N(S(C)(=O)=O)CC31CCN(C(=O)CN(C)C)CC1,AC50,[13],4.28 µM (active)
COc1ccc2c3c([nH]c2c1)[C@H](CO)N(Cc1cccc(Cl)c1)CC31CCN(C(C)=O)CC1,AC50,[13],4.26 µM (active)
CO[C@@H]1CN(C)C(=O)c2ccc(NC(=O)c3nc4ccccc4s3)cc2OC[C@H](C)N(Cc2cccnc2)C[C@@H]1C,AC50,[13],5 µM (active)
C[C@H]1CN([C@@H](C)CO)S(=O)(=O)c2ccc(C#Cc3ccncc3)cc2O[C@@H]1CN(C)S(=O)(=O)c1ccc(F)cc1,AC50,[13],3.9 µM (active)
COc1ccc(C2CC(=O)Oc3c(C(CCN4CCCCC4)c4ccc(N(C)C)cc4)c(OC)cc(OC)c32)cc1 (stereo not given),IC50,[14],14.5 µM (active)
same,IC50,[5],18 µM (active)
C[C@H](O)[C@H](O)[C@H]1CNc2nc(N)[nH]c(=O)c2N1,IC50,[6],> 66 µM (inactive)
same,IC50,[7],> 66 µM (inactive)
CN1CCN(NC(=O)CN2C(=O)S/C(=C\c3c(Cl)cccc3Cl)C2=O)CC1,IC50,[6],> 66 µM (inactive)
same,IC50,[7],> 66 µM (inactive)
O=C1OC(c2ccccc2)=NC12CC2c1ccc(Cl)cc1 (stereo not given),IC50,[1],0.293 µM (active)
same,IC50,[2],0.238 µM (active)
Cc1ccc(S(=O)(=O)Nc2nc3ccccc3nc2Nc2cccc(S(=O)(=O)N3CCCC3)c2)cc1,IC50,[6],> 66 µM (inactive)
same,IC50,[7],> 66 µM (inactive)
CC(C)(C)OC(=O)NCCCC[C@H](NC(=O)c1[nH]cnc1C(=O)Nc1ccccc1)C(=O)OC(C)(C)C,IC50,[1],2.63 µM (active)
same,IC50,[2],3.01 µM (active)
